Results reported in US11052065B2, “Compositions and methods for treating cancer with a combination of programmed death receptor (PD-1) antibodies and a CXCR2 antagonist” (Merck Sharp & Dohme Corp., priority 2017, dated 2021).

Tested on: B16-F10 melanoma tumor
Experiment: Anti-tumor efficacy in mouse B16-F10 melanoma syngeneic tumor model
Assay type: in vivo, C57Bl/6 mice
Settings: single agent treatment groups (navarixin 300 mg/kg bid + isotype control; anti-PD-1 10 mg/kg + vehicle); 12 mice per group; FIGS. 3 and 4
Method: The combination anti-tumor efficacy of a CXCR2 antagonist and anti-mouse PD-1 antibody muDX400 was assessed in the B16-F10 melanoma tumor model, syngeneic to the C57Bl/6 strain. This experiment compared the anti-tumor response of tumor-bearing mice to treatment with one of three regimens: monotherapy with a murine anti-mouse PD-1 monoclonal antibody (Anti-PD-1), monotherapy with a CXCR2 antagonist (navarixin) and combination therapy with these two agents administered concurrently.
Tumor-bearing mice for this study were initiated by implanting 0.4×10^6 log-phase and sub-confluent B16-F10 cells on the right lower dorsal flank of 7-8 week old female C57Bl/6 mice with an average body weight of 18 grams. When the mean tumor volume in these mice reached ˜70 cubic mm (50 mm^3-80 mm^3), the tumor-bearing mice were randomized to 5 treatment groups of 12 mice per group:
(1) Isotype Control+Vehicle;
(2) Isotype Control+Navarixin (bid);
(4) Anti-PD-1+Navarixin (bid) and;
(5) Anti-PD-1+Navarixin (qd).
The monoclonal antibody against murine PD-1 was of the isotype IgG1. The isotype control was a mouse monoclonal antibody specific for adenoviral hexon 25 and was of the isotype IgG1. […] The tumor volume was assessed using Vernier calipers.

CC[C@@H](Nc1c(Nc2cccc(C(=O)N(C)C)c2O)c(=O)c1=O)c1ccc(C)o1 [navarixin, 2-hydroxy-N,N-dimethyl-3-{2-[[(R)-1-(5-methylfuran-2-yl)propyl]amino]-3,4-dioxocyclobut-1-enylamino}benzamide]
complete and partial regressions: not observed
